According to patent US11596716B2, “Compounds and matrices for use in bone growth and repair” (Human BioMolecular Research Institute, priority 2013, dated 2023):
pEC50: −log10 of the molar value. Read-outs that look alike come from different tables or passages of the source.

Legend:
C2C12 cells [1] = assay: Alkaline Phosphatase (ALP) functional activity assay in C2C12 cells; type: cell-based, Mouse; conditions: 500 nM; for ALP activity, combination of compound and matrix compared to compound alone or matrix alone: 6 day incubation, tricalcium phosphate ceramic matrix 5 mg/mL (FIG. 2); for ALP activity fold-changes +/− SD, +matrix / ALP activity fold-changes +/− SD, −matrix: 6 days of culture; for ALP activity fold-changes +/− SD, +matrix: calcium phosphate ceramic 5 mg/mL; for ALP activity fold-changes +/− SD, −matrix: absence of matrix, versus untreated (DMSO) cells
Procedure, shortened: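 ALP functional activity in mouse C2C12 cells: following 6 days of culture with compound (500 nM, 0.1% DMSO), lysates prepared in buffer of 10 mM Tris-HCl pH 8.0, 1 mM MgCl2, 1% Triton X100 were centrifuged, incubated with pNPP (2 mg/mL) for 10 mins at 37° C., stopped with NaOH, and read at 405 nm; Bradford protein normalization and fold-change versus DMSO followed.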

C2C12 cells [2] = assay: qPCR detection of osteogenic markers in C2C12 cells; type: cell-based, Mouse; conditions: 500 nM, 6 days
C2C12 cells [3] = assay: Alizarin Red S staining (calcium deposition) in C2C12 cells; type: cell-based, Mouse; conditions: 500 nM, 25 days of treatment
Protocol: Alizarin Red S Staining: C2C12 cells were cultured as described for the ALP functional activity assay (above, except compound was added every 48 hr for 25 days), but using 48-well plate format. On day 25, medium was removed and the cells were washed with PBS (calcium and magnesium free). Cells were fixed with 70% ethanol at room temperature for 30 mins, rinsed with water 3×. Following removal of water, 200 μl of Alizarin Red S (2%, pH 4.1) was added to each well and incubated for at least 20 mins. The dye was removed and the cells were washed with excess H2O four times with gentle mixing. The cells were covered with water to prevent evaporation and analyzed by plate reader or microscope. This protocol was applied to hMSC and E15 cells.

C2C12 cells [4] = assay: Cell proliferation/viability assay (Resazurin / Alamar blue) in C2C12 cells; type: cell-based, Mouse; conditions: for cell viability (Alamar blue): 500 nM every 48 hrs for 25 days
Protocol: Cell proliferation/viability assay: Cells were seeded at a density of 500 cells/well on 96-well plates. After 24 hr, compound (i.e., 5 nM, 50 nM, 500 nM or 5000 nM) was added to the cells in the presence or absence of calcium phosphate matrix (5 mg/mL). […] At the specified time, 1 μg of Resazurin was added to each well of the 96-well plate and the fluorescence signal at 590 nm (excitation at 530 nm) was immediately measured. Readings were designated as time zero values (value0h). Cells were incubated for 1 hr before a second fluorescence measurement at 590 nm was made (value1h). The difference in 1 hr and 0 h (value1h−value0h) readings were used to plot the fold-change in cell proliferation/viability after normalizing to control conditions (i.e., DMSO vehicle treatment). Compounds of Formula II or IV that activate Wnt signaling and compounds of Formula VI that activate TLR signaling pathways were analyzed. This protocol was applied to hMSC and E15 cells as well. Cell proliferation was not robust in keeping with a narrow number of cells highly committed to the bone cell lineage.

C2C12 cells [5] = assay: qPCR of apoptosis biomarkers (Bax and Fos) in C2C12 cells; type: cell-based, Mouse; conditions: 500 nM or 5 μM every 48 hrs, up to 25 days
hMSCs [6] = assay: Alkaline Phosphatase functional activity assay in hMSCs; type: cell-based, human; design: key to Alkaline Phosphatase activity, −matrix, 8 days / Alkaline Phosphatase activity, +matrix, 8 days / Alkaline Phosphatase activity, −matrix, 25 days / Alkaline Phosphatase activity, +matrix, 25 days: fold-change vs DMSO-treated control (control = 1); conditions: for ALP functional activity, compound and matrix versus compound alone or matrix alone / Alkaline Phosphatase activity, +matrix, 8 days / Alkaline Phosphatase activity, +matrix, 25 days / Alkaline Phosphatase activity, −matrix, 25 days / Alkaline Phosphatase activity, −matrix, 8 days: 500 nM; for ALP functional activity, compound and matrix versus compound alone or matrix alone: 8 and 25 day incubations, matrix 5 mg/mL (FIG. 3); for Alkaline Phosphatase activity, +matrix, 8 days / Alkaline Phosphatase activity, +matrix, 25 days: matrix 5 mg/mL; for Alkaline Phosphatase activity, +matrix, 8 days / Alkaline Phosphatase activity, +matrix, 25 days / Alkaline Phosphatase activity, −matrix, 25 days / Alkaline Phosphatase activity, −matrix, 8 days: mean +/− SD (n = 3); for Alkaline Phosphatase activity, −matrix, 8 days: fold; for pEC50: dose-dependent induction in hMSCs, read-out: EC50 of induction of ALP activity
hMSCs [7] = assay: Alamar blue cell viability assay in hMSCs; type: cell-based, human; conditions: 500 nM, 25-day-old hMSCs
Protocol: Cell proliferation/viability assay: Cells were seeded at a density of 500 cells/well on 96-well plates. After 24 hr, compound (i.e., 5 nM, 50 nM, 500 nM or 5000 nM) was added to the cells in the presence or absence of calcium phosphate matrix (5 mg/mL). One-half of the media was replaced with fresh media containing compound every 48 hours for 8 days. At the specified time, 1 μg of Resazurin was added to each well of the 96-well plate and the fluorescence signal at 590 nm (excitation at 530 nm) was immediately measured. Readings were designated as time zero values (value0h). Cells were incubated for 1 hr before a second fluorescence measurement at 590 nm was made (value1h). The difference in 1 hr and 0 h (value1h−value0h) readings were used to plot the fold-change in cell proliferation/viability after normalizing to control conditions (i.e., DMSO vehicle treatment). Compounds of Formula II or IV that activate Wnt signaling and compounds of Formula VI that activate TLR signaling pathways were analyzed. This protocol was applied to hMSC and E15 cells as well. Cell proliferation was not robust in keeping with a narrow number of cells highly committed to the bone cell lineage.
The assay for cell proliferation followed the same procedure with hMSCs as described for C2C12 cells (Example 7).

hMSCs [8] = assay: qPCR of apoptosis biomarkers (Bax and Fos) in hMSCs; type: cell-based, human; conditions: for gene expression of apoptosis biomarkers (Bax and Fos): 500 nM to 5 μM, up to 25 days; for cytotoxicity as determined by quantification of apoptosis: hMSCs
hMSCs [9] = assay: Alcian Blue staining (chondrogenesis) in hMSCs; type: cell-based, human; conditions: 25 days; for effect on chondrogenesis, densitometry of cell culture images: 500 nM, TCP 5 mg/mL; for chondrogenesis (Alcian Blue staining) compared to vehicle-treated hMSCs: presence or absence of matrix
Protocol: Alcian Blue Staining: Alcian Blue staining was used to stain for the presence of chondrocytes. Alcian Blue solution (1% wt/volume, acetic acid, pH 2.5). hMSCs were cultured as described above for the Alizarin Red S Staining assay (Ex. 7) in 48-well plates. After 25 days of cell culture, cells were fixed with 4% formaldehyde (40 mins) at room temperature, stained for 1 hr followed by washing with dH2O (1 mL) until water was clear (without blue elutes). Cell culture images were taken under a microscope and quantified by densitometry.

[10] = system: Human embryonic stem cells E15 (hESCs); assay: qPCR of TLR4/TLR3 ratio and Collagen I in human embryonic stem cells E15; type: cell-based; conditions: 500 nM, 8 days
Protocol: Human embryonic stem cells E15 (hESCs) obtained from ATCC with less than 15 passages were cultured at 37° C. in 5% CO2 in DMEM media supplemented with 15% heat inactivated FBS and 1× GlutaMax. TLRs are biomarkers of stem cell differentiation. TLR4 expression is an osteogenic biomarker and TLR3 expression is an adipogenic biomarker. […]

| pEC50 (hMSCs [6]; Homo sapiens) | Compound | ALP activity, combination of compound and matrix compared to compound alone or matrix alone (C2C12 cells [1]) | ALP activity fold-changes +/− SD, +matrix (C2C12 cells [1]) | ID3 mRNA expression, presence of matrix (C2C12 cells [2]) | calcium deposition, absence of matrix (C2C12 cells [3]) | cell viability (Alamar blue) (C2C12 cells [4]) | gene expression of apoptosis biomarkers (Bax and Fos) (C2C12 cells [5]) | ALP functional activity, compound and matrix versus compound alone or matrix alone (hMSCs [6]) | Alkaline Phosphatase activity, +matrix, 8 days (hMSCs [6]) | Alkaline Phosphatase activity, +matrix, 25 days (hMSCs [6]) | Alkaline Phosphatase activity, −matrix, 25 days (hMSCs [6]) | Alkaline Phosphatase activity, −matrix, 8 days (hMSCs [6]) | cell viability (Alamar blue) (hMSCs [7]) | gene expression of apoptosis biomarkers (Bax and Fos) (hMSCs [8]) | cytotoxicity as determined by quantification of apoptosis (hMSCs [8]) | ALP activity fold-changes +/− SD, −matrix (C2C12 cells [1]) | effect on chondrogenesis, densitometry of cell culture images (hMSCs [9]) | chondrogenesis (Alcian Blue staining) compared to vehicle-treated hMSCs (hMSCs [9]) | increase of TLR4/TLR3 ratio in hESCs [10] | also measured |
| --- | --- | --- | --- | --- | --- | --- | --- | --- | --- | --- | --- | --- | --- | --- | --- | --- | --- | --- | --- | --- |
| 7.59 | CC(=O)N1c2ccc(C)cc2[C@H](Nc2ccc(C)cc2)C[C@@H]1C (relative stereo) [Compound 1, cis-1-acetyl-2,6-dimethyl-N-(p-methylphenyl)-1,2,3,4-tetrahydroquinolin-4-amine] | synergistic increase in ALP activity | 19.4 ± 2.0 fold | 5.0 fold | 1.6 fold | did not show a decrease in cell viability | unable to detect gene expression of typical apoptosis biomarkers | exceeded the effect of compound alone or matrix alone | 1.5 ± 0.1 | 3.6 ± 0.4 | 1.5 ± 0.1 | 1.2 ± 0.1 | no decrease in cell viability | unable to detect gene expression of typical apoptosis biomarkers | no cytotoxicity | – | – | – | – | ID3 mRNA expression, absence of matrix (C2C12 cells [2]): 1.8 fold; calcium deposition, presence of matrix (C2C12 cells [3]): 2.5 fold |
| – | CC(C)[C@H](N)C(=O)Oc1ccc(C=CC(=O)C=C(O)C=Cc2ccc(OC(=O)[C@@H](N)C(C)C)cc2)cc1 [Compound 3, (2S,2′S)—O,O′-(3-hydroxy-5-oxohepta-1,3,6-triene-1,7-diyl)bis(4,1-phenylene) bis(2-amino-3-methylbutanoate)] | synergistic increase in ALP activity | – | increased expression | marked calcium deposition | did not show a decrease in cell viability | unable to detect gene expression of typical apoptosis biomarkers | exceeded the effect of compound alone or matrix alone | 1.8 ± 0.1 | 2.3 ± 0.2 | 1.7 ± 0.1 | 1.5 ± 0.1 | no decrease in cell viability | unable to detect gene expression of typical apoptosis biomarkers | no cytotoxicity | 1.7 ± 0.2 fold | modestly inhibitory on chondrogenesis | no increase in chondrogenesis | 2 fold | increase in cell proliferation (Alamar Blue Assay) (C2C12 cells [4]; 50 nM, 3 days): 4 fold; pEC50 (hMSCs [6]): 6.85 |
| 6.89 | CC(C)[C@H](N)C(=O)Oc1ccc(/C=C/C(O)=C2\CCC/C(=C\c3ccc(OC(=O)[C@@H](N)C(C)C)cc3)C2=O)cc1 [Compound 4, 4-((1E,3Z)-3-(3-((E)-4-((L-valyl)oxy)benzylidene)-2-oxocyclohexylidene)-3-hydroxyprop-1-en-1-yl)phenyl L-valinate] | synergistic increase in ALP activity | 2.6 ± 0.3 fold | increased expression | marked calcium deposition | did not show a decrease in cell viability | unable to detect gene expression of typical apoptosis biomarkers | exceeded the effect of compound alone or matrix alone | 2.7 ± 0.2 | 4.0 ± 0.4 | 1.8 ± 0.2 | 1.5 ± 0.1 | no decrease in cell viability | unable to detect gene expression of typical apoptosis biomarkers | no cytotoxicity | 1.7 ± 0.2 fold | modestly inhibitory on chondrogenesis | no increase in chondrogenesis | 2 fold | – |
